# Assay results: US6531512B1, “Method of treating cancer in patients having a deficiency in p53 tumor suppressor gene” (Health Research Inc., priority 1998, dated 2003)
# Assays:
# [1] = system: MALME-3M human melanoma cells; assay: Cell growth of MALME-3M cells (Coulter Counter); type: cell-based; conditions: 10 μM
# Procedure: MALME-3M human melanoma cells containing wt-p53 (American Tissue Type Culture Collection, Bethesda, Md.) and human SK-MEL-28 cells containing mt-p53 (American Tissue Type Culture Collection, Bethesda, Md.) were cultured as a monolayer in RPMI 1640 medium containing 10% Nu-Serum (Collaborative Research Products, Bedford, Mass.), 1 mM aminoguanidine, penicillin (50 units/ml) and streptomycin (50 μg/ml) as described by Kramer et al, J. Biol. Chem., 270:2124-32 (1995) and Kramer et al., Cancer Res., 57:5521-5527 (1997).
# MALME-3M cells were cultured as described in Example 1. The cells were seeded by adding 1×10^5 cells to a T-25 vented cell culture flask. After 24 hours, the asynchronous cell cultures were treated with 10 μM N^1, N^11-diethylnorspermine (DENSPM) prepared by dissolving DENSPM in distilled water and sterilizing the solution by filtration through a 0.22 micron Millipore membrane. The cells were treated by continuous exposure to DENSPM for 6 days (i.e., the polyamine was added to the cell culture at T=0 and the culture was incubated for the desired amount of time). The number of viable MALME-3M cells were monitored electronically using a Model ZM Coulter Counter (Coulter Electronics, Hialeah, Fla.). Untreated MALME-3M cell cultures were used as controls.
# (§1) MALME-3M human melanoma cells were cultured as described in Example 1 and treated continuously with 10 μM DENSPM or 10 μM spermine (SPM) for 48 hours. SK-MEL-28 cells were also cultured as described in Example 1 and treated with 10 μM DENSPM for 24 hours. Untreated cells were used as a control.
# The effect of DENSPM and spermine on cell growth was monitored using a Coulter Counter (see Example 2). The effect on cell cycle was monitored by flow cytometry as described in Example 3.
# [2] = system: S-adenosylmethionine decarboxylase (SAMDC); assay: Polyamine enzyme activity in treated melanoma cells: SAMDC; type: cell-based, human; conditions: 10 μM
# Procedure: as §1, with “treated” for “treated continuously”, “as described in Example 4.” for “for 48 hours.”, “as describe in Example 4.” for “for 24 hours.”
# After treatment with DENSPM or spermine, biochemical parameters including polyamine enzymes activity, polyamine pools and analog accumulation were monitored as described by Kramer et al, J. Biol. Chem., 270:2124-32 (1995) and Kramer et al., Cancer Res., 57:5521-5527 (1997). Polyamine enzyme activity was monitored for ornithine […] (ODC); S-adenosylmethionine decarboxylase (SAMDC); and spermidine/spermine N^1-acetyltransferase (SSAT). Polyamine pools was monitored for putrescine (Put); spermidine (Spd); and spermine (Spm).
# SK-MEL-28 cells = assay: Apoptosis by proton NMR of membrane lipids (methylene/methyl ratio); type: cell-based, human; conditions: 10 μM
# Procedure: Apoptosis of MALME-3M and SK-MEL-28 cells due to treatment with 10 μM DENSPM was quantified using proton nuclear magnetic resonance (NMR) spectroscopy. NMR was used to detect membrane phospholipid spectral intensity changes which correlate with surface expression of phosphatidylserine, an early marker of apoptosis. Changes in methylene and methyl peaks were detected by the […] described by Blankenberg et al., Blood, 89:3778-3786 (1997).
# Intensity changes in membrane lipids was measured using NMR after 72 hours of continuous treatment with 10 μM DENSPM. […] The SK-MEL-28 cells undergo a rapid spectral ratio change which correlates with the massive cell loss seen in FIG. 4. Maximal cell death occurred by 48 hours in SK-MEL-28 cells. The data represent the mean ratio±standard deviation.
# For perspective, a methylene to methyl spectral ratio of about 1 is typical of untreated cells while a ratio of about 3 is the maximum attainable with most apoptotic responses. Thus, the ratio of 2.6 observed with DENSPM-treated SK-MEL-28 cells at 48 hours represents a full scale response.
# [3] = system: cell cycle regulatory proteins, including p53, p21, p27, ppRb, pRb, cyclin D1 and PCNA; assay: Western blot of cell cycle regulatory proteins in MALME-3M cells; type: cell-based, human; conditions: 10 μM
# Procedure: MALME-3M and SK-MEL-28 cells cultured as described in Example 4 were treated with 10 μM DENSPM for 0 to 48 hours. Western blot analysis of cell cycle regulatory proteins, including p53, p21, p27, ppRb, pRb, cyclin D1 and PCNA was performed following the procedure described by Fogel-Petrovic et al. in Molec. Pharm, 52:69-74 (1997); and Biochemistry, 35:14436-14444 (1996). Antibodies used for detecting the proteins were obtained commercially as follows: p53 from Santa Cruz Biotechnology, Inc. (Santa Cruz, Calif.); PCNA and Cyclin D1 from Oncogene Research Products (Cambridge, Mass.); Rb and p21 from PharMigen (San Diego, Calif.); p27 from Transduction labs (Lexington, Ky.) and β-actin (used to correct for variations in loading) from Sigma Chemical Co. (St. Louis, Mo.). Western blot analysis of each of these proteins was performed at least three times.
# mRNA for p53 and p21 = assay: Northern blot of p53 and p21 mRNA in MALME-3M cells; type: cell-based, human; conditions: asynchronous, 10 μM
# Procedure: Asynchronously growing MALME-3M cells were treated for 0 to 48 hours with 10 μM DENSPM as described in Example 2. Northern blots were used to detect mRNA for p53 and p21. The Northern blot procedure is described by Fogel-Petrovic et al. in Molec. Pharn, 52:69-74 (1997); and Biochemistry, 35:14436-14444 (1996). cDNA probes used in Nothern blot hybridization of p21 and p53 mRNA were obtained, respectively, from Dr. Bert Vogelstein (Johns Hopkins Oncology Center, Baltimore, Md.; El-Deiry et al., Cell, 75:817-825) and from Dr. Stephen Friend (Seattle, Wash.; Ishioka et al., Oncogene 10:1485-1492 (1995)). The relative increase in mRNA with analog treatment was normalized to the […] (GAPDH) signal to account for lane loading differences.
# [4] = MALME-3M (wt-p53), Table 2 (24 hours treatment)
smiles,measurement,setting,value
"CCNCCCNCCCNCCCNCC [DENSPM, N^1,N^11-diethylnorspermine]",% Control Growth,"[1]; MALME-3M (wt-p53), 48 hours",54%
same,% Growth Control,[1]; [4],83%
same,time course of viable cell number,"[1]; MALME-3M, asynchronous, continuous exposure 6 days","steady growth for the first 24 hours, then a plateau and then began to decline in number from 48 hours onwards"
same,SAMDC activity,[2]; [4],40 pmol/hr/mg protein
same,SAMDC activity,"[2]; SK-MEL-28 (mt-p53), Table 2, 24 hours",25 pmol/hr/mg protein
same,time of maximal cell death,SK-MEL-28 cells,≤ 48 h
same,methylene to methyl spectral ratio,SK-MEL-28 cells; 48 hours,2.6
same,appearance of the hypophosphorylated Rb (pRb) protein band,[3],about 16 hours
same,start of increase in p21,[3],about 12 hours
same,start of increase in wild type p53,[3],about 12 hours
same,time of p21 maximum,[3],30 h
same,time of p53 maximum,[3],30 h
same,protein levels of PCNA,[3]; 0 to 48 hours,unaffected
same,"p21 protein increase relative to zero treatment time (densitometry, normalized to β-actin)",[3]; 30 hour peak,5 fold
same,"p53 protein increase relative to zero treatment time (densitometry, normalized to β-actin)",[3]; 30 hour peak,10 fold
same,"levels of p130, cyclin D1 and cyclin E",[3]; 48 hour time course (data not shown),relatively constant
same,Rb phosphorylation state by 48 hours,[3]; 48 hours,pRb was the only species
same,p27 maximum induction,[3]; at 24 to 30 hours,about 1.5 fold
same,start of p21 mRNA increase,mRNA for p53 and p21,12 h
same,p53 mRNA,"mRNA for p53 and p21; 0 to 48 hours, normalized to GAPDH",remained constant
same,p21 mRNA increase,"mRNA for p53 and p21; 48 hours, normalized to GAPDH",about 20 fold
